Source: article PMC10024865 (Journal of medicinal chemistry, 2022)
Values belong to the compound of their own block, whether it stands above or below them.

How the values were obtained:
[1] = tested on: PNC prevalence in PC3M cells (GFP-PTB); experiment: High-content assay for PNC reduction; format: cell-based
[2] = tested on: nucleolar volume in PC3M cells; experiment: Nucleolar disassembly assay; format: cell-based; conditions: 24 hr, concentration-response
[3] = mouse, in vivo, ip, 5 mg/kg
[4] = in vivo; conditions: ip
[5] = tested on: nucleolar architecture in PC3M cells; experiment: Immunofluorescence of nucleolar markers RP-194 and NOPP140; format: cell-based; conditions: 1 μM, 1 hour
[6] = tested on: PC3M cells; experiment: BellBrook Labs tumor cell migration; format: cell-based; conditions: 3D collagen
[7] = tested on: PC3M cells; experiment: Secondary cytotoxicity/viability assays; format: cell-based; conditions: ATP, caspase 3/7, PicoGreen
[8] = Parallel artificial membrane permeability assay; format: in vitro ADME; conditions: pH 7.4

SMILES: CCO/C=N/c1c(C#N)c(-c2ccccc2)c(-c2ccccc2)n1Cc1ccccc1 [Compound 3a, Ethyl (E)-N-(1-benzyl-3-cyano-4,5-diphenyl-1H-pyrrol-2-yl)formimidate]
PNC reduction activity (in words) [1]: inactive

SMILES: O[C@H]1CC[C@H](Nc2ncnc3c2c(-c2ccccc2)c(-c2ccccc2)n3Cc2ccccc2)CC1 [Compound 13b, trans-4-((7-Benzyl-5,6-diphenyl-7H-pyrrolo[2,3-d]pyrimidin-4-yl)amino)cyclohexan-1-ol]
PNC reduction activity (in words) [1]: uniformly inactive

C48h (μM) [3]: BLQ^b
half-life ([4]; female, BALB/c, mouse, 5 mg/kg): 4.64 h
half-life ([4]; female, BALB/c, mouse, 25 mg/kg): 5.52 h
concentration at 48 h ([4]; female, BALB/c, mouse, 25 mg/kg, C48h (μM)): 0.011 µM
half-life ([4]; male, C57BL/6, mouse, 50 mg/kg): 16.4 h
SMILES: N=c1c2c(-c3ccccc3)c(-c3ccccc3)n(Cc3ccccc3)c2ncn1[C@H]1CC[C@H](O)CC1 [Compound 5f, trans-4-(7-Benzyl-4-imino-5,6-diphenyl-4,7-dihydro-3H-pyrrolo[2,3-d]pyrimidin-3-yl)cyclohexan-1-ol]
effect on nucleolar volume [2]: able to reduce nucleolar volume

SMILES: N#Cc1c(-c2ccccc2)c(-c2ccccc2)n(Cc2ccccc2)c1/N=C/N[C@H]1CC[C@H](O)CC1 [Compound 4f, (E)-N'-(1-benzyl-3-cyano-4,5-diphenyl-1H-pyrrol-2-yl)-N-((trans)-4-hydroxycyclohexyl)formimidamide]
PNC reduction activity (in words) [1]: inactive

SMILES: N=c1c2c(-c3ccccc3)cn(Cc3ccccc3)c2ncn1C1CCOCC1 [Compound 11b, 7-Benzyl-5-phenyl-3-(tetrahydro-2H-pyran-4-yl)-3,7-dihydro-4H-pyrrolo[2,3-d]pyrimidin-4-imine]
effect on nucleolar volume [2]: did not influence nucleolar integrity and morphology
distribution of RP-194 and NOPP140 in the nucleolus [5]: diffuse distribution

SMILES: OCCCNc1ncnc2c1c(-c1ccccc1)c(-c1ccccc1)n2Cc1ccccc1 [Compound 13a, 3-((7-Benzyl-5,6-diphenyl-7H-pyrrolo[2,3-d]pyrimidin-4-yl)amino)propan-1-ol]
PNC reduction activity (in words) [1]: uniformly inactive

SMILES: O=C(Nc1cccnc1)c1cccs1 [CID 790407]
Activity in the invasion assay [6]: active
Activity in all other secondary cytotoxicity/viability assays [7]: inactive

PAMPA permeability (in words) [8]: negligible
SMILES: Cc1c(C)n(Cc2ccccc2)c2ncn([C@H]3CC[C@H](O)CC3)c(=N)c12 [Compound 5nnn, (trans)-4-(7-Benzyl-4-imino-5,6-dimethyl-4,7-dihydro-3H-pyrrolo[2,3-d]pyrimidin-3-yl)cyclohexan-1-ol]

SMILES: N#Cc1c(-c2ccccc2)c(-c2ccccc2)n(Cc2ccccc2)c1N [Compound 2a]
PNC reduction activity (in words) [1]: inactive
